# Target: T1, human SGLT2 protein modified to have LeuGluSerArgGlyProVal added to the carboxy-terminal final residue (Homo sapiens, UniProt P31639)
# T1 construct: expressed in transfected cells; host or cells: CHO-K1
# T1 sequence (P31639 with tags, fused parts or gaps): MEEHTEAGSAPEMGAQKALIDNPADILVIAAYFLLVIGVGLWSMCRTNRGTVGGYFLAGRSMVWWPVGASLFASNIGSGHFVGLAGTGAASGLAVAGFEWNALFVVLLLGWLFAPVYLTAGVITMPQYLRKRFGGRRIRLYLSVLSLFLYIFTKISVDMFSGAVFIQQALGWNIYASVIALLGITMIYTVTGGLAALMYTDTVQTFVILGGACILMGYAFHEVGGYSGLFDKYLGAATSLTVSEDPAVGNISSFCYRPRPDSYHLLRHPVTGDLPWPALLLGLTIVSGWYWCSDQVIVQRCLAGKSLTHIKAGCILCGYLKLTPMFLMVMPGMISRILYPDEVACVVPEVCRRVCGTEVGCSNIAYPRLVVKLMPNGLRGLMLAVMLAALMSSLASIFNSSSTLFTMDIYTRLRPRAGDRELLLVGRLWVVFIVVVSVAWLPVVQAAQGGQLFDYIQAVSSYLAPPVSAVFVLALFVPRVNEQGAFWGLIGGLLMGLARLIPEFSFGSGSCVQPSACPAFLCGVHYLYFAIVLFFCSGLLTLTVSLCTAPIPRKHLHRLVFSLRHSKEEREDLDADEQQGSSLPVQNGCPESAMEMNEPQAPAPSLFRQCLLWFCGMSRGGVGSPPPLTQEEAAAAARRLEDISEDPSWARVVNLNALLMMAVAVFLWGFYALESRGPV
# Assay: Inhibition test for sodium-dependent sugar uptake in CHO-K1 cells stably expressing human SGLT2, Method A
# Type: cell-based
# Conditions: uptake 37° C., 60 minutes, read-out: IC50 for hSGLT2 Method A
# Procedure: (2) Creation of CHO-K1 Cells Stably Expressing Human SGLT2
# Method A (described in WO2007/136116): A plasmid vector expressing human SGLT2 protein modified to have LeuGluSerArgGlyProVal added to the carboxy-terminal final residue was transfected into CHO-K1 cells using lipofectamine 2000 (Invitrogen). The cells were cultured in the presence of 500 μg/mL hygromycin B to select resistant strains, followed by screening in the system shown below using sugar uptake capacity as an indicator to obtain SGLT2-expressing cells.
# (3) Inhibition Test for Sodium-Dependent Sugar Uptake in Stably Expressing Cells
# The stably expressing cells prepared above were used in the following test.
# Pretreatment buffer (140 mM choline chloride, 2 mM KCl, 1 mM CaCl2, 1 mM MgCl2, 10 mM HEPES/5 mM Tris, pH 7.4) was added in a volume of 200 μL to the cells stably expressing SGLT1 or 2 mL for Method A and 200 μL for Method B to the cells stably expressing SGLT2, followed by incubation for 20 minutes. The pretreatment buffer was removed and replaced by uptake buffer containing a test compound (1 mM methyl α-D-glucopyranoside (containing [^14C]methyl α-D-glucopyranoside), 140 mM NaCl, 2 mM KCl, 1 mM CaCl2, 1 mM MgCl2, 10 mM HEPES/5 mM Tris, pH 7.4) in a volume of 75 μL for SGLT1 and SGLT2 in Method B or 200 μL for SGLT2 in Method A. Uptake reaction was performed at 37° C. for 30 minutes (SGLT1) or 60 minutes (SGLT2). After the reaction, the cells were washed twice with washing buffer (10 mM methyl α-D-glucopyranoside, 140 mM choline chloride, 2 mM KCl, 1 mM CaCl2, 1 mM MgCl2, 10 mM HEPES/5 mM Tris, pH 7.4) in a volume of 200 μL for SGLT1 and SGLT2 in Method B or 2 mL for SGLT2 in Method A, and then dissolved in a 0.25 M NaOH solution (75 μL for SGLT1 and SGLT2 in Method B or 400 μL for SGLT2 in Method A). A liquid scintillator (Perkin Elmer) was added and mixed well with each sample, followed by measurement of radioactivity using a β-ray analyzer. For the control group, uptake buffer containing no test compound was prepared. Moreover, another uptake buffer containing choline chloride instead of NaCl was also prepared for basal uptake.
# For determination of IC50 values, test compounds prepared at 6 appropriate concentrations were used and their concentrations required for 50% inhibition of the amount of sugar uptake (IC50 values) were calculated relative to the amount of sugar uptake in the control group (100%).
row,Compound,IC50
1,Cc1cc(/C=C/C(C)(C)C(=O)NC(C)(C)C(=O)NCCN(C)C)ccc1Cc1cc([C@@H]2O[C@H](CO)[C@@H](O)[C@H](O)[C@H]2O)c(O)cc1C(C)C [Example 1-2],2690 nM
2,Cc1cc(/C=C/C(C)(C)C(=O)NC(C)(C)C(=O)N2CCC(N(C)C)CC2)ccc1Cc1cc([C@@H]2O[C@H](CO)[C@@H](O)[C@H](O)[C@H]2O)c(O)cc1C(C)C [Example 5-2],802 nM
3,Cc1cc(/C=C/C(C)(C)C(=O)NC(C)(C)C(=O)NCC(C)(C)N)ccc1Cc1cc([C@@H]2O[C@H](CO)[C@@H](O)[C@H](O)[C@H]2O)c(O)cc1C(C)C [Example 6-2],3110 nM
4,COc1cc(C(C)C)c(Cc2ccc(/C=C/C(C)(C)C(=O)NC(C)(C)C(=O)NCC(C)(C)N)cc2C)cc1[C@@H]1O[C@H](CO)[C@@H](O)[C@H](O)[C@H]1O [Example 13-2],14800 nM
5,COc1cc(C(C)C)c(Cc2ccc(/C=C/C(C)(C)C(=O)NC(C)(C)C(=O)NCCN(C)C)cc2)cc1[C@@H]1O[C@H](CO)[C@@H](O)[C@H](O)[C@H]1O [Example 15-2],1280 nM

# Reference: patent US8466113B2, “4-isopropylphenyl glucitol compounds as SGLT1 inhibitors” (Taisho Pharmaceutical Co., Ltd., priority 2009, dated 2013)
